Literature values in paper PMC10138554, “Insights into the Microbicidal, Antibiofilm, Antioxidant and Toxicity Profile of New O-Aryl-Carbamoyl-Oxymino-Fluorene Derivatives” (International Journal of Molecular Sciences, 2023).
In brackets after ≈: the same amount, converted by molar mass.

Test system: Artemia franciscana Kellog nauplii
Settings: comparison value for brine shrimp toxicity; cited from earlier work

O=P1(N(CCCl)CCCl)NCCCO1 (stereo not shown) [cyclophosphamide]
IC50 (toxicity): 16.3 mg/L (≈ 62.4 µM)
